The values that follow come from patent US9073855B2, “BCL-2 selective apoptosis-inducing agents for the treatment of cancer and immune diseases” (AbbVie Inc., priority 2008, dated 2015).

One assay has as its target GST-Bcl-2 (Homo sapiens, UniProt P10415). Nature of the assay: TR-FRET binding assay, GST-Bcl-2 with F-Bak peptide probe. As to conditions: for Ki: TR-FRET Binding Affinity; for Binding selectivity ratio (Bcl-XL Ki/Bcl-2 Ki): TR-FRET, Bcl-XL Ki divided by Bcl-2 Ki. In short, it runs like this: (§1)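 Displacement of a fluorescein-labelled Bak peptide from the GST-tagged protein was followed by time-resolved FRET with a terbium anti-GST donor after 3 h incubation at room temperature. Inhibition constants were calculated with Wang's equation.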
(In general: In TR-FRET formats the signal depends on donor and acceptor labels being close together.)

A further assay addresses GST-Bcl-XL (Homo sapiens, UniProt Q07817). Nature of the assay: TR-FRET binding assay, GST-Bcl-XL with F-Bak peptide probe. As to conditions: TR-FRET Binding Affinity. In short, it runs like this:
as §1

Chain of GST-Bcl-2 (P10415 whole entry): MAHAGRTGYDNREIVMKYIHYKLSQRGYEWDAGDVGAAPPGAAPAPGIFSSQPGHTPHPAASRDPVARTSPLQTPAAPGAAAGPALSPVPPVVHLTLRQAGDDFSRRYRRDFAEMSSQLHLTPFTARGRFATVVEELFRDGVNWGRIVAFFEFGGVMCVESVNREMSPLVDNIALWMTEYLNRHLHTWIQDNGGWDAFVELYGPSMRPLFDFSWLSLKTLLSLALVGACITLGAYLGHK
Chain of GST-Bcl-XL (Q07817 whole entry): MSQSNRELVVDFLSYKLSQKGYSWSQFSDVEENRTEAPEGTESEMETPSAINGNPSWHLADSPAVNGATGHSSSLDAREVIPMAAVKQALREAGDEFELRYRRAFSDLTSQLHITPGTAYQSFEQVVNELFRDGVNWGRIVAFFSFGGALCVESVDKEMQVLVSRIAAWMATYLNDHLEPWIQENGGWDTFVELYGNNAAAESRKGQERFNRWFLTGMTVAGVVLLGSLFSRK

In the case of `CC1(C)CCC(CN2CCN(c3ccc(C(=O)NS(=O)(=O)c4ccc(OCC5(F)CCOCC5)c(C#N)c4)c(Oc4cccc5[nH]ncc45)c3)CC2)=C(c2ccc(Cl)cc2)C1` [Example 501, 4-(4-{[2-(4-chlorophenyl)-4,4-dimethylcyclohex-1-en-1-yl]methyl}piperazin-1-yl)-N-({3-cyano-4-[(4-fluorotetrahydro-2H-pyran-4-yl)methoxy]phenyl}sulfonyl)-2-(1H-indazol-4-yloxy)benzamide], at GST-Bcl-2, the affinity corresponds to a Ki of 0.027 nM and the “Binding selectivity ratio (Bcl-XL Ki/Bcl-2 Ki)” value (“Binding selectivity ratio” below) worked out at 6025.7. This compound showed a Ki at GST-Bcl-XL of 163 nM.

Consider `CC1(C)CCC(CN2CCN(c3ccc(C(=O)NS(=O)(=O)c4ccc(OCC5COCCO5)c(Cl)c4)c(Oc4cccc5[nH]ncc45)c3)CC2)=C(c2ccc(Cl)cc2)C1` (stereo not drawn) [Example 502, N-{[3-chloro-4-(1,4-dioxan-2-ylmethoxy)phenyl]sulfonyl}-4-(4-{[2-(4-chlorophenyl)-4,4-dimethylcyclohex-1-en-1-yl]methyl}piperazin-1-yl)-2-(1H-indazol-4-yloxy)benzamide], for which the values for the Ki on GST-Bcl-2 and at GST-Bcl-XL were 0.025 nM and 145 nM, respectively. Moreover, the “Binding selectivity ratio” value at GST-Bcl-2 was determined as 5754.1.

For `CC1(C)CCC(CN2CCN(c3ccc(C(=O)NS(=O)(=O)c4cnc(OC[C@@H]5CN(C6CC6)CCO5)c(Cl)c4)c(Oc4cccc5[nH]cnc45)c3)CC2)=C(c2ccc(Cl)cc2)C1` [Example 503, 2-(1H-benzimidazol-4-yloxy)-N-[(5-chloro-6-{[(2S)-4-cyclopropylmorpholin-2-yl]methoxy}pyridin-3-yl)sulfonyl]-4-(4-{[2-(4-chlorophenyl)-4,4-dimethylcyclohex-1-en-1-yl]methyl}piperazin-1-yl)benzamide], at GST-Bcl-2, the affinity, expressed as Ki, was 0.062 nM and the “Binding selectivity ratio” value was determined as 2356.5. The inhibition constant Ki on GST-Bcl-XL was 147 nM.

On to `CC1(C)CCC(CN2CCN(c3ccc(C(=O)NS(=O)(=O)c4cnc(OC[C@@H]5CN(C6CC6)CCO5)c(Cl)c4)c(Oc4cccc5[nH]ncc45)c3)CC2)=C(c2ccc(Cl)cc2)C1` [Example 504, N-[(5-chloro-6-{[(2S)-4-cyclopropylmorpholin-2-yl]methoxy}pyridin-3-yl)sulfonyl]-4-(4-{[2-(4-chlorophenyl)-4,4-dimethylcyclohex-1-en-1-yl]methyl}piperazin-1-yl)-2-(1H-indazol-4-yloxy)benzamide], for which the Ki is less than 0.01 nM on GST-Bcl-2 and 5.5 nM at GST-Bcl-XL. In addition, the “Binding selectivity ratio” value at GST-Bcl-2 is recorded as more than 549.9.

For the compound `COC(=O)N1CCOC(CNc2ccc(S(=O)(=O)NC(=O)c3ccc(N4CCN(CC5=C(c6ccc(Cl)cc6)CC(C)(C)CC5)CC4)cc3Oc3cccc4[nH]ncc34)cc2[N+](=O)[O-])C1` (stereo not drawn) [Example 505, methyl 2-{[(4-{[4-(4-{[2-(4-chlorophenyl)-4,4-dimethylcyclohex-1-en-1-yl]methyl}piperazin-1-yl)-2-(1H-indazol-4-yloxy)benzoyl]sulfamoyl}-2-nitrophenyl)amino]methyl}morpholine-4-carboxylate], on GST-Bcl-2, the Ki was less than 0.01 nM and the “Binding selectivity ratio” value is recorded as more than 486.1. This compound also showed a Ki at GST-Bcl-XL of 4.86 nM.

For `CCN(C)C(=O)N1CCOC(CNc2ccc(S(=O)(=O)NC(=O)c3ccc(N4CCN(CC5=C(c6ccc(Cl)cc6)CC(C)(C)CC5)CC4)cc3Oc3cccc4[nH]ncc34)cc2[N+](=O)[O-])C1` (stereo not drawn) [Example 506, 2-{[(4-{[4-(4-{[2-(4-chlorophenyl)-4,4-dimethylcyclohex-1-en-1-yl]methyl}piperazin-1-yl)-2-(1H-indazol-4-yloxy)benzoyl]sulfamoyl}-2-nitrophenyl)amino]methyl}-N-ethyl-N-methylmorpholine-4-carboxamide], on GST-Bcl-2, the Ki is less than 0.01 nM and the “Binding selectivity ratio” value was more than 445.7. Moreover, on GST-Bcl-XL, the Ki turned out to be 4.46 nM.

Turning to `CCN(C)C(=O)N1CCOC(CNc2ccc(S(=O)(=O)NC(=O)c3ccc(N4CCN(CC5=C(c6ccc(Cl)cc6)CC(C)(C)CC5)CC4)cc3Oc3cccc4[nH]cnc34)cc2[N+](=O)[O-])C1` (stereo not drawn) [Example 507, 2-{[(4-{[2-(1H-benzimidazol-4-yloxy)-4-(4-{[2-(4-chlorophenyl)-4,4-dimethylcyclohex-1-en-1-yl]methyl}piperazin-1-yl)benzoyl]sulfamoyl}-2-nitrophenyl)amino]methyl}-N-ethyl-N-methylmorpholine-4-carboxamide], at GST-Bcl-2, the inhibition constant (Ki) is less than 0.01 nM and the “Binding selectivity ratio” value is on record as more than 3334.7. The Ki on GST-Bcl-XL turned out to be 33.3 nM.

Regarding `CC[C@]1(O)CC[C@H](COc2ncc(S(=O)(=O)NC(=O)c3ccc(N4CCN(CC5=C(c6ccc(Cl)cc6)CC(C)(C)CC5)CC4)cc3Oc3cccc4[nH]ncc34)cc2Cl)CC1` [Example 508, N-({5-chloro-6-[(trans-4-ethyl-4-hydroxycyclohexyl)methoxy]pyridin-3-yl}sulfonyl)-4-(4-{[2-(4-chlorophenyl)-4,4-dimethylcyclohex-1-en-1-yl]methyl}piperazin-1-yl)-2-(1H-indazol-4-yloxy)benzamide], on GST-Bcl-2, the Ki was less than 0.01 nM and the “Binding selectivity ratio” value is more than 4315.2. The inhibition constant Ki on GST-Bcl-XL amounted to 43.2 nM.

Turning to `CC[C@]1(O)CC[C@@H](COc2ncc(S(=O)(=O)NC(=O)c3ccc(N4CCN(CC5=C(c6ccc(Cl)cc6)CC(C)(C)CC5)CC4)cc3Oc3cccc4[nH]ncc34)cc2Cl)CC1` [Example 509, N-({5-chloro-6-[(cis-4-ethyl-4-hydroxycyclohexyl)methoxy]pyridin-3-yl}sulfonyl)-4-(4-{[2-(4-chlorophenyl)-4,4-dimethylcyclohex-1-en-1-yl]methyl}piperazin-1-yl)-2-(1H-indazol-4-yloxy)benzamide], on GST-Bcl-2, the Ki amounted to 6.3 nM and the “Binding selectivity ratio” value is recorded as 36.4. At GST-Bcl-XL, the Ki is 229 nM.

Turning to `CC1(C)CCC(CN2CCN(c3cc(Oc4cccc5[nH]ncc45)c(C(=O)NS(=O)(=O)c4cnc(OCC5(F)CCOCC5)c(Cl)c4)cc3Cl)CC2)=C(c2ccc(Cl)cc2)C1` [Example 510, 5-chloro-N-({5-chloro-6-[(4-fluorotetrahydro-2H-pyran-4-yl)methoxy]pyridin-3-yl}sulfonyl)-4-(4-{[2-(4-chlorophenyl)-4,4-dimethylcyclohex-1-en-1-yl]methyl}piperazin-1-yl)-2-(1H-indazol-4-yloxy)benzamide], at GST-Bcl-2, affinity was put at a Ki of 0.674 nM and the “Binding selectivity ratio” value worked out at 257.8. At GST-Bcl-XL, this compound showed a Ki of 174 nM.

Turning to `CC1(C)CCC(CN2CCN(c3cc(Oc4cccc5[nH]ncc45)c(C(=O)NS(=O)(=O)c4ccc(NCC5(F)CCOCC5)c([N+](=O)[O-])c4)cc3Cl)CC2)=C(c2ccc(Cl)cc2)C1` [Example 511, 5-chloro-4-(4-{[2-(4-chlorophenyl)-4,4-dimethylcyclohex-1-en-1-yl]methyl}piperazin-1-yl)-N-[(4-{[(4-fluorotetrahydro-2H-pyran-4-yl)methyl]amino}-3-nitrophenyl)sulfonyl]-2-(1H-indazol-4-yloxy)benzamide], on GST-Bcl-2, the Ki is less than 0.01 nM and the “Binding selectivity ratio” value is given as more than 2159.2. The compound further yielded an inhibition constant Ki on GST-Bcl-XL of 21.6 nM.

As for `CC1(C)CCC(CN2CCN(c3ccc(C(=O)NS(=O)(=O)c4cnc(OCC5(F)CCC(C)(O)CC5)c(Cl)c4)c(Oc4cccc5[nH]ncc45)c3)CC2)=C(c2ccc(Cl)cc2)C1` (stereo not drawn) [Example 512, N-({5-chloro-6-[(cis-1-fluoro-4-hydroxy-4-methylcyclohexyl)methoxy]pyridin-3-yl}sulfonyl)-4-(4-{[2-(4-chlorophenyl)-4,4-dimethylcyclohex-1-en-1-yl]methyl}piperazin-1-yl)-2-(1H-indazol-4-yloxy)benzamide], on GST-Bcl-2, the Ki is less than 0.01 nM and the “Binding selectivity ratio” value is reported as more than 1733.8. Besides, on GST-Bcl-XL, the Ki came out at 17.3 nM.

With `CC1(C)CCC(CN2CCN(c3ccc(C(=O)NS(=O)(=O)c4cnc(OC[C@]5(F)CC[C@](C)(O)CC5)c(Cl)c4)c(Oc4cccc5[nH]ncc45)c3)CC2)=C(c2ccc(Cl)cc2)C1` [Example 513, N-({5-chloro-6-[(trans-1-fluoro-4-hydroxy-4-methylcyclohexyl)methoxy]pyridin-3-yl}sulfonyl)-4-(4-{[2-(4-chlorophenyl)-4,4-dimethylcyclohex-1-en-1-yl]methyl}piperazin-1-yl)-2-(1H-indazol-4-yloxy)benzamide], the Ki on GST-Bcl-2 was less than 0.01 nM; at GST-Bcl-XL, 6.46 nM. Further, on GST-Bcl-2, the “Binding selectivity ratio” value is listed as more than 646.2.

Consider `CC1(C)CCC(CN2CCN(c3ccc(C(=O)NS(=O)(=O)c4ccc(NCC5(F)CCOCC5)c([N+](=O)[O-])c4)c(Oc4cccc5[nH]nnc45)c3)CC2)=C(c2ccc(Cl)cc2)C1` [Example 514, 2-(1H-benzotriazol-4-yloxy)-4-(4-{[2-(4-chlorophenyl)-4,4-dimethylcyclohex-1-en-1-yl]methyl}piperazin-1-yl)-N-[(4-{[(4-fluorotetrahydro-2H-pyran-4-yl)methyl]amino}-3-nitrophenyl)sulfonyl]benzamide], for which the Ki is less than 0.01 nM on GST-Bcl-2 and 10.4 nM at GST-Bcl-XL. Moreover, the “Binding selectivity ratio” value at GST-Bcl-2 was more than 1041.3.

With `CC1(C)CCC(CN2CCN(c3ccc(C(=O)NS(=O)(=O)c4cnc(OCC5(F)CCOCC5)c(Cl)c4)c(Oc4cccc5[nH]nnc45)c3)CC2)=C(c2ccc(Cl)cc2)C1` [Example 515, 2-(1H-benzotriazol-4-yloxy)-N-({5-chloro-6-[(4-fluorotetrahydro-2H-pyran-4-yl)methoxy]pyridin-3-yl}sulfonyl)-4-(4-{[2-(4-chlorophenyl)-4,4-dimethylcyclohex-1-en-1-yl]methyl}piperazin-1-yl)benzamide], on GST-Bcl-2, the Ki is less than 0.01 nM and the “Binding selectivity ratio” value is more than 13994.0. Further, at GST-Bcl-XL, the affinity, expressed as Ki, was 140 nM.

In general, Ki refers to the dissociation constant of the complex between target and ligand, obtained from inhibition or displacement. A higher Ki goes with lower affinity.
